Reference: patent publication US20240066137A1, “NOVEL PROTEIN CONJUGATE, AND USE THEREOF FOR PREVENTING OR TREATING NONALCOHOLIC STEATOHEPATITIS, OBESITY AND DIABETES” (ONEGENE BIOTECHNOLOGY INC., priority 2020, published 2024)
Like-named read-outs stand apart in the source and are kept apart here. One block for each substance: values may come before it.

Key:
[1] = target: GLP-1R (GLP-1 acceptor) (Homo sapiens, UniProt P43220); assay: cAMP accumulation assay, GLP-1 acceptor overexpressing cells
GLP-1R (GLP-1 acceptor), sequence (P43220 24-463): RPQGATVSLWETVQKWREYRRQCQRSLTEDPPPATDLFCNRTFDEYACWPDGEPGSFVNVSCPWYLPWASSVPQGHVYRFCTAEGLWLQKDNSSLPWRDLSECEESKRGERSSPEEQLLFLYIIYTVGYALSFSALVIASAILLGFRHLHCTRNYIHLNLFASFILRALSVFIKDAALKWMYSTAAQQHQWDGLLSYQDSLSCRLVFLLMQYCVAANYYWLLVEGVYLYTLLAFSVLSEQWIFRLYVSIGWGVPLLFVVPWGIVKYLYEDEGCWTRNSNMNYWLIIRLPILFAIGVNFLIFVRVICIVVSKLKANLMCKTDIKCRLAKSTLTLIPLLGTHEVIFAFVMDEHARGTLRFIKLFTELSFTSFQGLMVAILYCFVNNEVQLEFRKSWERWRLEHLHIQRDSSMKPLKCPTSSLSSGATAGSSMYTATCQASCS

[2] = tested on: C57BL/6J mice in which fatty liver was induced by feeding MCD; assay: In-vivo efficacy against non-alcoholic steatohepatitis (MCD diet mice); design: species or system mouse; ALT / Hepatic TGF-β / Hepatic Triglyceride: unit not given here; settings: for ALT: dulaglutide 2 nmol/kg s.c. 1 time/2 days, 14 times; for Hepatic TGF-β: liver tissue ELISA; for Hepatic Triglyceride / Lobular inflammation score (Lobular inflammation) / NAS (NAFLD Activity Score) / Steatosis score (Steatosis): liver tissue
Source text: The MCD mouse model is the most typically used method for efficacy testing against non-alcoholic steatohepatitis, and it is known that the histological appearance of the induced liver tissue from week 2 to week 4 is histologically similar to that of human non-alcoholic steatohepatitis. There are many precedent cases in which a number of pharmaceutical companies and academia conducted tests with various substances.
Fatty liver was induced by feeding MCD to male C57BL/6J mice for 8 weeks, and then the mice were divided into 6 groups shown in Table 7 below, and drug administration was performed for 4 weeks. As a comparative substance, two currently commercially available drugs, liraglutide (Saxenda) and dulaglutide (Trulycity), were used. The administered composition was repeatedly administered subcutaneously using a disposable syringe according to each administration cycle. […] The normal control group was fed with MCS (Methionine and Choline Sufficient L-Amino Acid Diet).
During the 4-week administration period, general symptoms and behavior were observed, and body weight was measured once a week after the start of administration and on the day of tissue extraction. Blood collection and liver tissue extraction were performed on the day of the end of observation, and blood was subjected to a hematological-biochemical test, and the extracted liver tissue was subjected to a histopathological test.
Alanine aminotransferase (ALT), which is used as the most basic indicator of liver disease, was measured through a hematological-biochemical test, and the results are shown in Table 8 below and FIG. 21.
In addition, histopathological test was performed by observation through H&E and Masson's trichrome staining, and the results are shown in FIG. 23. In the case of non-alcoholic steatohepatitis, steatosis and inflammation in lobules occurs, and inflammatory cells can be identified by tissue staining.
In addition, based on the evaluation criteria shown in Table 10 below, steatosis score, lobular inflammation score, and NAS (NAFLD activity score) were evaluated.
In addition, triglyceride accumulation in the liver tissue was analyzed using the Triglyceride Assay Kit, and the results are shown in Table 15 below and FIG. 28.
The mice were divided into 4 groups shown in Table 16 below, and the experiment was conducted in the same manner as in Test Example 4 above. As a comparative substance, the currently commercially available dulaglutide (Trulycity) was used.

[3] = target: NF-κB activity by IL-1β; assay: NF-κB reporter gene luciferase assay; assay type: cell-based; settings: IL-1β stimulated
Method: The cells were cultured to 70-80% full in a T-75 flask. The medium was removed and washed once with 5 mL of the pre-warmed PBS. PBS was removed, and 1 mL of TryPLE Express was added, and incubated for 5 minutes in an incubator at 37° C. and 5% CO2, and the cells were detached. It was mixed with 4 mL of assay medium (10% FBS, 1% antibiotic in DMEM), and the mixture was transferred to a 15 mL tube, centrifuged at 1,000 rpm for 3 minutes, and then again released in 5 mL of assay medium. The number of cells was counted, and the concentration was allowed to be 500,000 cells/mL. It was transferred to a reservoir, and 40 μL per well was dispensed into a white 96-well half-area cell culture plate using a multi-channel pipette (20,000 cells/well). Only 40 μL of assay medium was dispensed into the blank well. The cells were incubated in an incubator at 37° C. and 5% CO2 for 24 hours to allow to be attached.
5 μL of each of the reference (10×) and sample (10×) prepared by 4-fold serial dilution was dispensed in duplicate. Thereafter, 5 μL of 50 pM IL-1β (10×) was dispensed and incubated in an incubator at 5% CO2 for 4 hours. 50 μL of ONE-Glo reagent (Promega, Cat. No. E6120) was each dispensed and cultured at room temperature for 5 minutes, and then the luminescence was measured with a Synergy Neo2 instrument. At this time, before treatment with ONE-Glo reagent, the plate was removed from the incubator for 15 minutes and allowed to reach room temperature.
The Delta RLU (relative luminescence unit) (ΔRLU) was calculated as follows.
ΔRLU=RLUsample−RLUblank=Signal−background luminescence
The IC50 values were obtained as ΔRLU by each concentration using GraphPad Prism 8, as follows (curve-fitting of the log (antagonist) vs. normalized response−variable slope equation).
In order to test the ability of the native IL-1RA and the IL-1RA analogue to inhibit NF-κB activity by IL-1β at the cellular level (in vitro), the NF-κB reporter gene luciferase assay was performed in the same manner as in Test Example 3.

[4] = Test Example 4, dulaglutide 2 nmol/kg
[5] = Test Example 5, dulaglutide 2 nmol/kg

EC50 ([1]; Test Example 9 screening, Cell line: Stable): 0.00145 ± 0.00045 nM
EC50 ([1]; read-out: EC50 GLP-1R, 1, Test Example 1, run 1): 0.00123 nM
EC50 ([1]; read-out: EC50 GLP-1R, Mean, Test Example 1, mean of 2 runs): 0.00107 nM
Substance: Dulaglutide [reference compound]
ALT ([2]; Test Example 4, blood): 220.5
Hepatic TGF-β [2, 4]: 159.60
Hepatic Triglyceride [2, 4]: 40.78
Lobular inflammation score (Lobular inflammation) [2, 4]: 1.5
NAS (NAFLD Activity Score) [2, 4]: 3.4
Steatosis score (Steatosis) [2, 4]: 1.9
AST/ALT value ([2]; Test Example 5, blood, dulaglutide 2 nmol/kg): 0.76
ALT ([2]; Test Example 5, blood): 246.8
Hepatic TGF-β [2, 5]: 165.3
Hepatic Triglyceride [2, 5]: 36.08
Lobular inflammation score (Lobular inflammation) [2, 5]: 1.6
NAS (NAFLD Activity Score) [2, 5]: 3.4
Steatosis score (Steatosis) [2, 5]: 1.8

IC50 ([3]; Test Example 3, mean of 4 runs, read-out: IC50, Mean): 0.0475 nM
IC50 ([3]; Test Example 3, run 1, read-out: IC50, 1): 0.0399 nM
IC50 ([3]; Test Example 3, run 2, read-out: IC50, 2): 0.0515 nM
IC50 ([3]; Test Example 3, run 3, read-out: IC50, 3): 0.0466 nM
IC50 ([3]; Test Example 3, run 4, read-out: IC50, 4): 0.0519 nM
IC50 ([3]; Test Example 9 screening, read-out: IC50): 0.0686 ± 0.00771 nM
Substance: rhIL-1RA: native IL-1RA, SEQ ID NO: 27
